Molecules are shown by their SMILES.

The assay concerns the target T1, human TGR5 bile acid receptor (Homo sapiens, UniProt Q8TDU6).
T1 construct: The full length TGR5 gene is inserted into pCMV6 vector DNA (Origene); expressed in transfected cells
T1 sequence (Q8TDU6 1-330): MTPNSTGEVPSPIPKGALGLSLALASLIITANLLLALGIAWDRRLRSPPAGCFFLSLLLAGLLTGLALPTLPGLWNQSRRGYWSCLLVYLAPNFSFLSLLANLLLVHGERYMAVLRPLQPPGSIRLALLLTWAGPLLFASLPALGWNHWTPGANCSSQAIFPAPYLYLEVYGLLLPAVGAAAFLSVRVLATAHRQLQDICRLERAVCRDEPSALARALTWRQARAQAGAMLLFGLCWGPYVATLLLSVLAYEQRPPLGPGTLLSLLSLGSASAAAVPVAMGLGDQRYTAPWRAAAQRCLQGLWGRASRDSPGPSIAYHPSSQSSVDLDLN
Description: TGR5 receptor activation, HTRF cAMP assay in 293/humanTGR5 cells. It counts as cell-based. As to conditions: activation of 293/humanTGR5 (HEK 293) cells measured by cAMP levels, 30 minutes at 37° C., relative to vehicle and 50 μM of Compound 7. As for the experimental part: Transformed E. coli stocks containing cDNA for the full length human TGR5 bile acid receptor (IMAGE clone #5221127) are obtained from Open Biosystems. Cultures are grown in LB broth, and cDNA is purified using Qiagen mini-prep columns. The full length TGR5 gene is inserted into pCMV6 vector DNA (Origene) by ligation followed by transformation in competent E. coli. Ampicillin-resistant clones are isolated and vector DNA containing the TGR5 gene is verified by DNA sequence analysis (Sequetech). The resulting plasmid is transfected into HEK 293 cells using FuGene 6 transfection reagent and the transfected cells are grown in the presence of 1 mg/mL G418 selection antibiotic. A number of individual G418 resistant colonies are isolated by using 150 μL cloning cylinders. The resulting 293/humanTGR5 expressing cell lines are then screened for responsiveness to the natural ligand lithocholic acid. A single clone is chosen for expansion and use for screening, this clone reproducibly responds to known receptor agonists for over 30 passages. The 293/humanTGR5 cells are maintained in DMEM/F12 media supplemented with 10% fetal bovine serum (Hyclone) and 15 mM HEPES buffer (Invitrogen). Cells are passaged twice weekly and maintained at densities to assure logarithmic growth. For use in cAMP assays, cells are trypsinzied, centrifuged, and resuspended in DMEM/F12 media supplemented with 0.5% FBA and 15 mM HEPES buffer. These cells are adjusted to a density which allows distribution of 25,000 cells in 20 μL of volume to each well of a half-area 96-well plate (Greiner Bio-One). 20 μL of test compounds diluted to a 2× concentration in DMEM/F12 media with 0.5% FBS are then added to the 96-well plates, and the plates are then incubated for 30 minutes at 37° C. in a 5% CO2 atmosphere. Levels of resulting cAMP for each treatment condition are then determined by use of an HTRF cAMP assay (CisBio) following the manufactures directions. The resulting data is analyzed using IDBX XLfit software and IC50 determinations are made for each test compound by comparing cAMP levels to vehicle controls (unstimulated) and TGR5 agonist-activated cells (50 μM of Compound 7, a reported TGR5 receptor agonist, J. Med. Chem., 2009, 52 (24), pp 7962-7965). Specificity for human TGR5 agonist activity is confirmed for compounds of interest by testing them against cell lines over expressing the mouse TGR5 receptor, human GPR119 receptor, and parent cell lines followed by measurement of resulting cAMP levels. Assay responsiveness is controlled for by measuring cAMP levels induced by 50 μM Forskolin in cells, a known adenylyl […] activator.
One may read the EC50 as the concentration giving half of the maximal effect. A lower EC50 goes with an effect from little substance. On to `Cc1ccc(N(C)C(=O)c2sc3nnc(SCc4ccc5c(c4)OCO5)n3c2-c2ccccc2)cc1Cl` [Example 3, 3-(1,3-Benzodioxol-5-ylmethylsulfanyl)-N-(3-chloro-4-methyl-phenyl)-N-methyl-5-phenyl-thiazolo[2,3-c][1,2,4]triazole-6-carboxamide], for which the EC50 lay within 0.5 to 5 µM. With `Cc1nnc2sc(SCc3c(F)cccc3Cl)c(-c3ccccc3)n12` [Example 8, 6-[(2-Chloro-6-fluoro-phenyl)methylsulfanyl]-3-methyl-5-phenyl-thiazolo[2,3-c][1,2,4]triazole] the figure was 5 to 50 µM. Then `Fc1cccc(Cl)c1CSc1cnc2scc(-c3cccc(Cl)c3)n12` [Example 138, 5-[(2-chloro-6-fluoro-phenyl)methylsulfanyl]-3-(3-chlorophenyl)imidazo[2,1-b]thiazole], with 0.5 to 5 µM. Then `Cc1ccc(-c2csc3nnc(SCc4c(F)cccc4Cl)n23)cc1Cl` [Example 86], with 0.5 to 5 µM. In turn, `COc1cc(Br)c(Cc2sc3nnc(SCc4c(F)cccc4Cl)n3c2-c2ccc(F)c(Cl)c2)cc1OC` [Example 119] displayed an EC50 of 0.5 to 5 µM.

In the case of `c1cc(-c2csc3nnc(SCc4ccc5c(c4)OCO5)n23)cc(C2CC2)c1` [Example 80], the EC50 was in the range of 0.5 to 5 µM. With `COc1ccc(Cc2sc3nnc(SCc4c(F)cccc4Cl)n3c2-c2ccc(F)cc2)cc1OC` [Example 83] the figure was 0.5 to 5 µM; with `CCc1sc2nnc(SCc3ccc4c(c3)OCO4)n2c1-c1ccccc1` [Example 48], 5 to 50 µM; with `Cc1ccc(Nc2nnc3scc(-c4cc(Cl)ccc4Cl)n23)cc1Cl` [Example 14, N-(3-chloro-4-methylphenyl)-5-(2,5-dichlorophenyl)thiazolo[2,3-c][1,2,4]triazol-3-amine], 0.5 to 5 µM.

With `Cc1cc(-c2csc3nnc(SCc4ccc5c(c4)OCO5)n23)ccc1F` [Example 115], the concentration giving a half-maximal response (EC50) was under 0.5 µM.

The compound `Fc1ccc(-c2csc3nnc(SCc4ccc5c(c4)OCO5)n23)cc1Br` [Example 53] registered an EC50 of under 0.5 µM. With `COc1ccc(-c2csc3nnc(SCc4ccc5c(c4)OCO5)n23)c(Cl)c1` [Example 65] the figure was 0.5 to 5 µM. In turn, `Clc1cccc(-c2csc3nnc(SCc4ccc5c(c4)OCO5)n23)c1Cl` [Example 76] returned an EC50 of 0.5 to 5 µM. Then `Cc1ccc(-c2csc3nnc(SCc4c(F)cccc4Cl)n23)cc1` [Example 109], with under 0.5 µM; and `COc1ccc(C(C)(C)c2sc3nnc(SCc4c(F)cccc4Cl)n3c2-c2ccccc2)cc1OC` [Example 11, 3-[(2-chloro-6-fluoro-phenyl)methylsulfanyl]-6-[1-(3,4-dimethoxyphenyl)-1-methyl-ethyl]-5-phenyl-thiazolo[2,3-c][1,2,4]triazole], with 0.5 to 5 µM; and `Cc1ccc(N(C)C(=O)c2sc3nnc(C)n3c2-c2ccccc2)cc1Cl` [Example 2, N-(3-chloro-4-methyl-phenyl)-N,3-dimethyl-5-phenyl-thiazolo[2,3-c][1,2,4]triazole-6-carboxamide], with 0.5 to 5 µM.

Regarding `C=C(c1ccc(OC)c(OC)c1)c1sc2nnc(SCc3c(F)cccc3Cl)n2c1-c1ccccc1` [Example 12, 3-[(2-chloro-6-fluoro-phenyl)methylsulfanyl]-6-[1-(3,4-dimethoxyphenyl)vinyl]-5-phenyl-thiazolo[2,3-c][1,2,4]triazole], the 50% effective concentration (EC50) is 5 to 50 µM. With `c1ccc(-c2csc3nnc(SCc4ccc5cnccc5c4)n23)cc1` [Example 43] the figure was 5 to 50 µM; with `c1ccc(-c2csc3nnc(CCc4ccc5c(c4)OCO5)n23)cc1` [Example 4, 3-[2-(1,3-benzodioxol-5-yl)ethyl]-5-phenyl-thiazolo[2,3-c][1,2,4]triazole], 5 to 50 µM; with `COc1cc(Br)c(Cc2sc3nnc(SCc4c(F)cccc4Cl)n3c2-c2ccc(F)c(Cl)c2)c(Br)c1OC` [Example 112], 0.5 to 5 µM.

Take `CC(c1ccccc1)c1sc2nnc(SCc3c(F)cccc3Cl)n2c1-c1ccc(F)cc1` (stereo not shown) [Example 98]: the EC50 was 5 to 50 µM. Then `c1ccc(CCSc2nnc3scc(-c4ccccc4)n23)cc1` [Example 30], with 5 to 50 µM; and `COc1cc(Cl)c(Cc2sc3nnc(SCc4ccc5c(c4)OCO5)n3c2-c2cccc(Cl)c2)cc1OC` [Example 127], with 0.5 to 5 µM. Then `Fc1ccc(-c2csc3nnc(SCc4ccc5c(c4)OCO5)n23)cc1` [Example 24], with 5 to 50 µM; and `COC(=O)c1cccc(CSc2nnc3scc(-c4cccc(Br)c4)n23)c1` [Example 66], with 0.5 to 5 µM. Then `Clc1ccc(CSc2nnc3scc(-c4ccccc4)n23)cc1` [Example 26], with 0.5 to 5 µM; and `CN(C(=O)C(C)(C)C)c1cc(F)ccc1-c1csc2nnc(SCc3ccc4c(c3)OCO4)n12` [Example 59], with 5 to 50 µM; and `Fc1ccc(-c2c(-c3c(F)cccc3Cl)sc3nnc(Cc4ccc5c(c4)OCO5)n23)cc1` [Example 97], with 5 to 50 µM.

The compound `COc1ccc(Cc2sc3nnc(SCc4c(F)cccc4Cl)n3c2-c2ccc(F)c(Cl)c2)cc1Cl` [Example 100] registered an EC50 of 0.5 to 5 µM. With `c1ccc2cc(-c3csc4nnc(SCc5ccc6c(c5)OCO6)n34)ccc2c1` [Example 131] the figure was 5 to 50 µM; with `COc1ccc(Cc2sc3cnc(SCc4c(F)cccc4Cl)n3c2-c2cccc(Cl)c2)cc1OC` [Example 18, 5-[(2-chloro-6-fluoro-phenyl)methylsulfanyl]-3-(3-chlorophenyl)-2-[(3,4-dimethoxyphenyl)methyl]imidazo[5,1-b]thiazole], under 0.5 µM.

Compound `Fc1cccc(Cl)c1CSc1ncc2scc(-c3cccc(Cl)c3)n12` [Example 15, 5-[(2-chloro-6-fluoro-phenyl)methylsulfanyl]-3-(3-chlorophenyl)imidazo[5,1-b]thiazole] gave a concentration giving a half-maximal response (EC50) of under 0.5 µM. Consider `Cc1ccc(N(C)C(=O)c2sc3nncn3c2-c2ccccc2)cc1Cl` [Example 1, N-(3-chloro-4-methyl-phenyl)-N-methyl-5-phenyl-thiazolo[2,3-c][1,2,4]triazole-6-carboxamide], for which the EC50 fell in the range of 0.5 to 5 µM. With `COc1ccc(Cc2sc3nnc(SCc4ccc(F)cc4F)n3c2-c2ccc(F)c(Cl)c2)cc1Cl` [Example 106] the figure was 0.5 to 5 µM; with `c1ccc(-c2csc3nnc(Oc4ccc5c(c4)OCO5)n23)cc1` [Example 46], 5 to 50 µM. With `COc1ccc(Cc2sc3nnc(SCc4c(F)cccc4Cl)n3c2-c2cccc(Cl)c2)cc1OC` [Example 17, 3-[(2-Chloro-6-fluoro-phenyl)methylsulfanyl]-5-(3-chlorophenyl)-6-[(3,4-dimethoxyphenyl)methyl]thiazolo[2,3-c][1,2,4]triazole] the figure was 0.5 to 5 µM; with `OC(c1ccc(F)cc1)c1sc2nnc(SCc3ccc4c(c3)OCO4)n2c1-c1ccccc1` (stereo not shown) [Example 7, [3-(1,3-Benzodioxol-5-ylmethylsulfanyl)-5-phenyl-thiazolo[2,3-c][1,2,4]triazol-6-yl]-(4-fluorophenyl)methanol], 5 to 50 µM. Then `COc1ccc(CSc2nnc3sc(-c4c(F)cccc4Cl)c(-c4ccc(F)cc4)n23)cc1F` [Example 94], with 0.5 to 5 µM. `Cc1ccc(N(C)c2nnc3scc(-c4cc(Cl)ccc4Cl)n23)cc1Cl` [Example 120] returned a half-maximal effective concentration (EC50) of 0.5 to 5 µM.

The compound `Brc1cccc(-c2csc3nnc(SCc4ccc5c(c4)OCO5)n23)c1` [Example 69] returned an EC50 of under 0.5 µM. Then `Fc1cccc(Cl)c1CSc1nnc2scc(-c3ccccc3)n12` [Example 19], with 5 to 50 µM; and `COc1cc(-c2csc3nnc(SCc4ccc5c(c4)OCO5)n23)ccc1F` [Example 50], with 0.5 to 5 µM. Then `Fc1cccc(Cl)c1CSc1nnc2scc(-c3cccc(Cl)c3)n12` [Example 117], with 0.5 to 5 µM.

These data come from patent US20130085157A1, “ARYLSUBSTITUTED THIAZOLOTRIAZOLES AND THIAZOLOIMIDAZOLES” (priority 2011, published 2013).
